Laboratory results taken from patent publication US7423015B1, “Antihelminthic drugs as a treatment for hyperproliferative diseases” (Board of Regents, The University of Texas System, priority 2001, dated 2008).
Read-outs that look alike come from different tables or passages of the source.

Assays:
A549 = test: Proliferation assay, 50% growth inhibitory concentration; assay type: cell-based; settings: Homo sapiens, 24 h; A549, p53 positive; after 1 day of exposure
Experimental: (§1) All cell lines were grown in RPMI 1640 medium supplemented with 5% fetal bovine serum and 5% CO2. All experiments were done when the cells were 70% confluent. For cell growth measurements, 5×10^4 cells were plated in each well of six-well plates. Control and BZ-treated (0.05 μg/ml) cells were trypsinized and counted using a hemocytometer. Experiments were done in triplicate and the mean and standard deviation were determined by standard methods.
(§2) Studies to determine the IC50 for fenbendazole and mebendazole were performed on a panel of six different human cancer cell lines: two carrying the wild-type p53 gene and actively expressing the p53 protein, (H460 and A549); one marked by homozymes deletion of the p53 gene and lacking p53 gene expression (H358); two expressing mutant p53 (H322 and H596); and one in which wild-type p53 is inactivated by human papilloma virus E6 protein. […] A dose of 166 nM (˜[…]) was chosen for these studies because it had been shown previously that this concentration was sufficient to induce wild-type p53 after 24 h of treatment.

H322 = test: as above; assay type: cell-based; settings: Homo sapiens, NCI-H322, 24 h; H322, p53 mutated; after 1 day of exposure
Experimental: as §1, §2

H358 [1] = test: as above; assay type: cell-based; settings: Homo sapiens, NCI-H358, 24 h; H358, p53 deleted; after 1 day of exposure
Experimental: as §1, §2

H460 [2] = test: as above; assay type: cell-based; settings: Homo sapiens, NCI-H460, 24 h; H460, p53 positive; inhibit growth by 50% after 1 day of exposure
Experimental: as §1, §2

H596 [3] = test: as above; assay type: cell-based; settings: Homo sapiens, NCI-H596, 24 h; H596, p53 mutated; after 1 day of exposure
Experimental: as §1, §2

HeLa (p53 inactivated) = test: as above; assay type: cell-based; settings: Homo sapiens, 24 h, after 1 day of exposure
Experimental: as §1, §2

H1299 = test: Cell viability, trypan blue cell count assay; assay type: cell-based; settings: Homo sapiens, NCI-H1299, H1299 (lung, p53 deleted), 100% = untreated cells
Experimental: as §1
(§3) To further investigate the relationship between the induction of functional p53 and the subsequent apoptosis mediated by these drugs, the inventors posited that if BZs require wild-type p53 in order to exert their effect, then fenbendazole and mebendazole would not be cytotoxic to the many tumor lines producing a mutated p53 protein. To investigate this possibility, human cell lines derived from NSCLC origins of differing p53 status were further analyzed by a 5-day cell growth assay. The cells were plated onto a six-well plate, and the viability of the cells was determined by trypan blue exclusion. Cells were counted on a hemocytometer. The values shown are the means ±standard deviation of triplicate samples. Duplicate experiments gave similar results. H322 is a human lung adenocarcinoma line that produces a mutant p53 protein. […] However, fenbendazole and mebendazole induced nuclear accumulation of p53 only in the H460 cell line, which carries wild-type p53 genes. […] Cells were exposed to FZ (filled bar) or MZ (hatched bar) for 24 hr. A concentration of 0.05 μg/ml FZ and MZ was used. An immunoblot analysis of nuclear p53 was also performed to determine whether these drugs induced the production of p53. Equal amounts of protein extracts from each cell line before and after treatment were used for this analysis.

H226Br = test: Cell viability, trypan blue cell count assay; assay type: cell-based; settings: Homo sapiens, H226Br (lung, R254), 100% = untreated cells
Experimental: as §1, §3

H358 [4] = test: Cell viability, trypan blue cell count assay; assay type: cell-based; settings: Homo sapiens, NCI-H358, H358 (lung, p53 deleted), 100% = untreated cells
Experimental: as §1, §3

H460 [5] = test: Cell viability, trypan blue cell count assay; assay type: cell-based; settings: Homo sapiens, NCI-H460, H460 (lung, wild-type p53), 100% = untreated cells
Experimental: as §1, §3

H549 = test: Cell viability, trypan blue cell count assay; assay type: cell-based; settings: Homo sapiens, H549 (lung, wild-type p53), 100% = untreated cells
Experimental: as §1, §3

H596 [6] = test: Cell viability, trypan blue cell count assay; assay type: cell-based; settings: Homo sapiens
Experimental: as §1, §3

HT1080 = test: Cell viability, trypan blue cell count assay; assay type: cell-based; settings: Homo sapiens, HT-1080, HT1080 (fibrosarcoma, wild-type p53), 100% = untreated cells
Experimental: as §1, §3

HeLa = test: Cell viability, trypan blue cell count assay; assay type: cell-based; settings: Homo sapiens, HeLa (cervical, wild-type p53 inactivated by E6), 100% = untreated cells
Experimental: as §1, §3

Hep 3B = test: Cell viability, trypan blue cell count assay; assay type: cell-based; settings: Homo sapiens, Hep3B, Hep 3B (liver, p53 deleted), 100% = untreated cells
Experimental: as §1, §3

MCF-7 = test: Cell viability, trypan blue cell count assay; assay type: cell-based; settings: Homo sapiens, MCF7, MCF-7 (breast, wild-type p53), 100% = untreated cells
Experimental: as §1, §3

SK-OV-433 = test: Cell viability, trypan blue cell count assay; assay type: cell-based; settings: Homo sapiens, SK-OV-433 (ovarian, wild-type p53), 100% = untreated cells
Experimental: as §1, §3

SiHa = test: Cell viability, trypan blue cell count assay; assay type: cell-based; settings: Homo sapiens, SiHa (cervical, wild-type p53 inactivated by E6), 100% = untreated cells
p53 protein = test: p53 induction, immunoblot analysis of nuclear extracts; assay type: cell-based, human; set-up: p53 Induction: dose or concentration left out as unconfirmed

SMILES	IC50 (A549) [µM]	IC50 (H322) [µM]	IC50 (H358 [1]) [µM]	IC50 (H460 [2]) [µM]	IC50 (H596 [3]) [µM]	IC50 (HeLa (p53 inactivated)) [µM]	viability at 0.05 µg/mL (H1299) [%]	viability at 0.05 µg/mL (H226Br) [%]	viability at 0.05 µg/mL (H358 [4]) [%]	viability at 0.05 µg/mL (H460 [5]) [%]	viability at 0.05 µg/mL (H549) [%]	viability at 0.05 µg/mL (HT1080) [%]	viability at 0.05 µg/mL (HeLa) [%]	viability at 0.05 µg/mL (Hep 3B) [%]	viability at 0.05 µg/mL (MCF-7) [%]	viability at 0.05 µg/mL (SK-OV-433) [%]	viability at 0.05 µg/mL (SiHa) [%]	p53 Induction (p53 protein; H226Br)	p53 Induction (p53 protein; H322)	p53 Induction (p53 protein; H358)	also measured
COC(=O)Nc1nc2ccc(Sc3ccccc3)cc2[nH]1 [Fenbendazole, methy 5-(phenylthio)-2-benzimidazole-2-carbamate]	0.123	0.816	0.654	0.152	0.643	0.853	89.2 ± 1.1	80.1 ± 11.1	88.3 ± 17.8	39.2 ± 6.4	46.4 ± 13.3	54.5 ± 12	93.6 ± 7.4	79.5 ± 12.5	43.9 ± 7.3	52.5 ± 13.2	94.5 ± 7.4	No	No	No	viability (H596 [6]; NCI-H596, read-out: % Cell Viability): 86.7 ± 11.5%; concentration at which induction of p53 became detectable (p53 protein; H460): 0.01 µg/mL; p53 Induction (p53 protein; H460): Yes; p53 Induction (p53 protein; H549): Yes; p53 Induction (p53 protein; H596): No; p53 Induction (p53 protein; H1299): No; p53 Induction (p53 protein; HeLa): No; induction of p53 production (p53 protein; HeLa (HPV-18) and SiHa (HPV-16) cells, 48 h, total cell proteins): no induction; p53 Induction (p53 protein; Hep 3B): No; p53 Induction (p53 protein; MCF-7): Yes; p53 Induction (p53 protein; MDA 231): No; p53 Induction (p53 protein; RD): No; p53 Induction (p53 protein; SK-OV-433): Yes; p53 Induction (p53 protein; SW480): No; p53 Induction (p53 protein; Saos-2): No; p53 Induction (p53 protein; SiHa): No
COC(=O)Nc1nc2ccc(C(=O)c3ccccc3)cc2[nH]1 [Mebendazole, Methyl 5-benzoylbenzimidazole-2-carbamate]	0.13	0.871	0.893	0.106	0.601	0.4	89.2 ± 4.3	64.24 ± 0.2	73.5 ± 1.8	25.2 ± 7.6	39.2 ± 10.7	44.5 ± 7.7	92.4 ± 6.27	83.2 ± 1.5	24.3 ± 8.4	28.1 ± 6.1	91.3 ± 8.6	No	No	No	viability (H596 [6]; NCI-H596, H596 (lung, R245C), 100% = untreated cells, read-out: % Cell Viability): 86.2 ± 8%; p53 Induction (p53 protein; H460): Yes; p53 Induction (p53 protein; H549): Yes; p53 Induction (p53 protein; H596): No; p53 Induction (p53 protein; H1299): No; p53 Induction (p53 protein; HeLa): No; p53 Induction (p53 protein; Hep 3B): No; p53 Induction (p53 protein; MCF-7): Yes; p53 Induction (p53 protein; MDA 231): No; p53 Induction (p53 protein; RD): No; p53 Induction (p53 protein; SK-OV-433): Yes; p53 Induction (p53 protein; SW480): No; p53 Induction (p53 protein; Saos-2): No; p53 Induction (p53 protein; SiHa): No
